Source: patent publication US11844845B2, “Cell penetrating peptide, conjugate comprising same, and composition comprising conjugate” (GEMVAX & KAEL CO., LTD., priority 2012, dated 2023)

System: HeLa cell
Assay: Cell penetration of pep(CPP)-FITC conjugate in HeLa cell line, flow cytometry (FACS)
Type: cell-based, Homo sapiens
Details: HeLa cells, 20 uM FITC-fused peptide, 37° C. for an hour, control = FITC only
Description: Homo sapiens cervix adenocarcinoma cell line as HeLa cell lines were purchased from ATCC (American Type Cell Culture). The cells were cultured in MEM supplemented with 10% fetal bovine serum (Invitrogen, USA), Earle's salts, non-essential amino acids, sodium pyruvate and 100 μg/ml penicillin and 10 units/ml streptomycin and cultured at 37° C., 5% CO2 incubator.
Flow cytometry and Confocal microscope analysis were performed to compare the between degree of cellular uptake of the cells were treated with SEQ ID NO: 2 to SEQ ID NO: 178, pep (CPP) and control.
The cell line was divided in a 6-well plate and cultured in a medium containing 10% fetal bovine serum (Invitrogen, USA), 100 μg/ml penicillin, 100 units/ml streptomycin at 37° C. 5% CO2 incubator for 12 hours. After washing the cell line with PBS, starvation was induced in a Minimum Essential Medium for an hour. 20 uM of each carrier peptide was treated and cultured at 37° C. for an hour. After repeating the step of washing the cells with PBS for three times, Trypsin-EDTA was treated form 10 mins at 37° C. to separate the carrier peptide on the outside of the cell. cells were collected with refrigerated PBS and centrifugation was performed to repeat the step of washing the cells for three times. After then, the cells were suspended in 0.5 ml of PBS containing 4% Paraformaldehyde and fluorescence of the cells was analyzed using FACS Calibur (Becton Dickinson). The cellular uptake aspect of control and various peptides combined with FITC was compared and analyzed by MFI (Mean Fluorescence Intensity).
Analysis results shown in FIGS. 2 to 29 are given in detail in Table 7 below.

Row | Substance | cellular uptake, MFI (Mean Fluorescence Intensity)
1 | RPALLTSRLRFIP (listed as Homo sapiens) [Pep-RIA-121] | 20.72 ± 0.33
2 | ALLTS (listed as Homo sapiens) [Pep-RIA-143] | 13.24 ± 0.37
3 | LLTS (listed as Homo sapiens) [Pep-RIA-151] | 8.81 ± 0.83
4 | RPALLTSRLR (listed as Homo sapiens) [Pep-RIA-123] | 17.31 ± 0.68
5 | EVRQHREARPALLTSRLRFIPK (listed as Homo sapiens) [Pep-RIA-6] | 16.09 ± 2.52
6 | EARPALLT (listed as Homo sapiens) [Pep-RIA-85] | 10.1 ± 0.34
7 | AEVRQHREARPALLTSRLRFIPKPDGL (listed as Homo sapiens) [Pep-RIA-54] | 13.71 ± 0.11
8 | REARPALLTSRLRFIPKPDGL (listed as Homo sapiens) [Pep-RIA-30] | 15.34 ± 0.55
9 | LTS (listed as Homo sapiens) [Pep-RIA-158] | 9.91 ± 1.44
10 | EARPALLTSRLRFIPKPDGLRPIVNMDYVV (listed as Homo sapiens) [Pep-RIA-77] | 87.67 ± 0.93
11 | EARPALLTSRLRFIPKPDGLRP (listed as Homo sapiens) [Pep-RIA-69] | 13.72 ± 0.68
12 | LLTSRLRFIPK (listed as Homo sapiens) [Pep-RIA-95] | 25.79 ± 0.46
13 | RPALL (listed as Homo sapiens) [Pep-RIA-127] | 12.15 ± 0.89
14 | LLTSR (listed as Homo sapiens) [Pep-RIA-150] | 14.51 ± 0.81
15 | HREARPALLTSRLRFIPKPD (listed as Homo sapiens) [Pep-RIA-17] | 13.61 ± 0.22
16 | HREARPALLTSRLRFIPKPDGLRP (listed as Homo sapiens) [Pep-RIA-49] | 15.15 ± 0.62
17 | QHREARPALLTSRLRFIPKPDGLR (listed as Homo sapiens) [Pep-RIA-37] | 16.73 ± 0.28
18 | VRQHREARPALLTSRLRFIPKPDGLRPI (listed as Homo sapiens) [Pep-RIA-59] | 22.69 ± 0.66
19 | EARPALL (listed as Homo sapiens) [Pep-RIA-86] | 9.95 ± 2.34
20 | EARPALLTSRL (listed as Homo sapiens) [Pep-RIA-82] | 10.12 ± 0.95
21 | REARPALLTSRLRFIPKPD (listed as Homo sapiens) [Pep-RIA-18] | 13.4 ± 0.34
22 | ARP (listed as Homo sapiens) [Pep-RIA-120] | 10.04 ± 0.53
23 | RPALLTSRLRFIPK (listed as Homo sapiens) [Pep-RIA-92] | 26.28 ± 0.38
24 | LTSRL (listed as Homo sapiens) [Pep-RIA-157] | 11.42 ± 0.32
25 | PALLTSRLRFIPK (listed as Homo sapiens) [Pep-RIA-93] | 22.88 ± 1.82
26 | FIPK (listed as Homo sapiens) [Pep-RIA-102] | 12.64 ± 0.44
27 | ARPALLTSRL (listed as Homo sapiens) [Pep-RIA-113] | 11.54 ± 1.57

Row | Substance | cellular uptake, MFI (Mean Fluorescence Intensity)
28 | LTSRLRF (listed as Homo sapiens) [Pep-RIA-155] | 14.31 ± 0.55
29 | RQHREARPALLTSRLRFIPKPDGLRP (listed as Homo sapiens) [Pep-RIA-47] | 17.6 ± 0.82
30 | EVRQHREARPALLTSRLRFIPKPDGLRPI (listed as Homo sapiens) [Pep-RIA-58] | 17.96 ± 0.97
31 | EARPAL (listed as Homo sapiens) [Pep-RIA-87] | 9.6 ± 1.76
32 | HREARPALLTSRLRFIPKPDG (listed as Homo sapiens) [Pep-RIA-22] | 14.42 ± 0.28
33 | AEVRQHREARPALLTSRLRFIPK (listed as Homo sapiens) [Pep-RIA-7] | 16.49 ± 1.35
34 | LLTSRLR (listed as Homo sapiens) [Pep-RIA-149] | 16.2 ± 0.22
35 | VRQHREARPALLTSRLRFIPK (listed as Homo sapiens) [Pep-RIA-5] | 20.24 ± 0.34
36 | LSEAEVRQHREARPALLTSRLRFIPK (listed as Homo sapiens) [Pep-RIA-10] | 14.64 ± 0.76
37 | HREARPALLTSRLRFIPKPDGL (listed as Homo sapiens) [Pep-RIA-29] | 15.26 ± 0.95
38 | VRQHREARPALLTSRLRFIPKPDG (listed as Homo sapiens) [Pep-RIA-33] | 15.04 ± 0.68
39 | AEVRQHREARPALLTSRLRFIPKPDGLRPI (listed as Homo sapiens) [Pep-RIA-57] | 16.75 ± 0.48
40 | PALLTSR (listed as Homo sapiens) [Pep-RIA-134] | 13.28 ± 0.75
41 | VRQHREARPALLTSRLRFIPKPDGLRP (listed as Homo sapiens) [Pep-RIA-46] | 15.35 ± 0.92
42 | EVRQHREARPALLTSRLRFIPKPDGLRP (listed as Homo sapiens) [Pep-RIA-45] | 14.23 ± 1.65
43 | ARPAL (listed as Homo sapiens) [Pep-RIA-118] | 11.41 ± 1.03
44 | EARPALLTSRLRFIPKPDGLRPIVNM (listed as Homo sapiens) [Pep-RIA-73] | 24.33 ± 0.89
45 | EVRQHREARPALLTSRLRFIPKPD (listed as Homo sapiens) [Pep-RIA-41] | 13.58 ± 2.78
46 | RQHREARPALLTSRLRFIPKPDGL (listed as Homo sapiens) [Pep-RIA-27] | 19.69 ± 0.49
47 | RQHREARPALLTSRLRFIPKPDGLR (listed as Homo sapiens) [Pep-RIA-36] | 14.07 ± 0.41
48 | EAEVRQHREARPALLTSRLRFIPK (listed as Homo sapiens) [Pep-RIA-8] | 14.12 ± 0.79
49 | EARPALLTSRLRFIPKPDG (listed as Homo sapiens) [Pep-RIA-66] | 13.46 ± 0.19
50 | EARPALLTSRLRFIPKPDGLRPIVNMDYV (listed as Homo sapiens) [Pep-RIA-76] | 22.07 ± 0.64
51 | ARPALL (listed as Homo sapiens) [Pep-RIA-117] | 15.06 ± 0.58
52 | ALLTSR (listed as Homo sapiens) [Pep-RIA-142] | 13.23 ± 0.57
53 | SRLRFIP (listed as Homo sapiens) [Pep-RIA-165] | 5.75 ± 0.41
54 | HREARPALLTSRLRFIPKP (listed as Homo sapiens) [Pep-RIA-16] | 15.96 ± 2.37
